The experiment concerns the target RibD-enolase complex (RibD activity) (Francisella tularensis, UniProt A0Q460). The note with it: substrate generated in situ from GTP by E. coli RibA; with and without PEP.

On to `Nc1nc(N[C@@H]2O[C@H](COP(=O)(O)O)[C@@H](O)[C@H]2O)c(N)c(=O)[nH]1` [2,5-diamino-6-ribosyl-amino-4(3H) pyrimidinedione 5′-phosphate], for which the “fluorescence of the RibD reaction product (ex 408 nm, em 485 nm)” value is recorded as “Results showed similar activity for both, with PEP having the same effect on each”.
